Common to all, as to type: cell-based, rabbit
In test [1] the target is T1, R282K-PepT1 (Oryctolagus cuniculus, UniProt P36836, R282K).
T1 construct: expressed in transfected cells; host or cells: Xenopus laevis oocytes injected with cRNA
T1 sequence (P36836 1-707 R282K): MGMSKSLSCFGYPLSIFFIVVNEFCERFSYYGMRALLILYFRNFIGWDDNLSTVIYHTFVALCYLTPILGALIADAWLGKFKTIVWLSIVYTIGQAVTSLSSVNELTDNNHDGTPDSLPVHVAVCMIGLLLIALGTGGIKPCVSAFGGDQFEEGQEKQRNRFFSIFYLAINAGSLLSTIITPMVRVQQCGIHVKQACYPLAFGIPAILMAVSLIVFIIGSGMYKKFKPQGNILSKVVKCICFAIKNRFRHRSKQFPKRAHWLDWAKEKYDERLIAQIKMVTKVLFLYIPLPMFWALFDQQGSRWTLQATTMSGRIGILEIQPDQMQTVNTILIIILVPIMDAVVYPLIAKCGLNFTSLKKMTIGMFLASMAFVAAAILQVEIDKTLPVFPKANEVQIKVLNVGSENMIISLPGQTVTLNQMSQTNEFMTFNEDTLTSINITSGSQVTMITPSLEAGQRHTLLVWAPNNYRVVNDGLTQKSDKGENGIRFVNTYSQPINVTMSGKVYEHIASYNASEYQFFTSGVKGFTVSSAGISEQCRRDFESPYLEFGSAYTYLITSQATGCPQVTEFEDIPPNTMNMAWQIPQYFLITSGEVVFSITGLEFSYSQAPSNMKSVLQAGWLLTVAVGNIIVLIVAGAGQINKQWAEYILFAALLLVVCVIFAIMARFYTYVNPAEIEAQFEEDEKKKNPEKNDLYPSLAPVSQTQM
Kind of test: Inhibition of [3H]-D-Phe-L-Gln uptake into Xenopus oocytes expressing R282K-PepT1 (competition, Ki). The note with it: pHout 5.5, 0.4 μM [3H]-D-Phe-L-Gln. As to the method: (§1) Zero-trans uptake of [^3H]-D-Phe-L-Gln (17.4 Ci/mmole, custom synthesised, Cambridge Research Biochemicals, Stockton-on-Tees, UK) was performed as previously described ([Meredith, 2004]). Briefly, 5 oocytes were incubated in 100 μl of uptake medium (95 mM NaCl, 2 mM KCl, 1 mM CaCl2, 0.42 mM MgCl2, 10 mM Tris/Hepes pH 7.4 or Tris/Mes pH 5.5) with tracer (0.4 μM) [^3H]-D-Phe-L-Gln. After incubation, the oocytes were washed sequentially five times in 1 ml of ice-cold 120 mM NaCl solution, lysed individually with 100 μl 2% (w/v) SDS and liquid scintillation counted. As a control non-injected oocytes were also incubated in uptake medium with [^3H]-D-Phe-L-Gln as above.
(§2) The affinity of wild-type and mutant PepT1 were assessed by competition studies with 0.4 μM [^3H]-D-Phe-L-Gln and Gly-L-Gln present in the uptake medium in concentrations from 0 to 2 mM using the protocol above, and the Ki calculated using the method of [Deves and Boyd (1989)].

Test [2] deals with T2, R282D-PepT1 (Oryctolagus cuniculus, UniProt P36836, R282D).
T2 construct: expressed in transfected cells; host or cells: Xenopus laevis oocytes injected with cRNA
T2 sequence (P36836 1-707 R282D): T1 sequence (P36836 1-707 R282K) with K282D
As to the kind of experiment: Inhibition of [3H]-D-Phe-L-Gln uptake into Xenopus oocytes expressing R282D-PepT1 (competition, Ki). The note with it: pHout 5.5, 0.4 μM [3H]-D-Phe-L-Gln. The method, then:
as §1, §2

The target of test [3] is T3, wild-type PepT1 (Oryctolagus cuniculus, UniProt P36836).
T3 construct: expressed in transfected cells; host or cells: Xenopus laevis oocytes injected with cRNA
T3 sequence (P36836 1-707): T1 sequence (P36836 1-707 R282K) with K282R
Kind of test: Diethylpyrocarbonate inhibition of PepT1-mediated dipeptide uptake and protection by substrates. The note with it: 5 mM present during 1 mM DEPC incubation (15 min), uptake measured over 1 h. As to the method: as §1
Diethylpyrocarbonate (DEPC) inhibition of PepT1 was performed using a similar protocol to that of [Terada, Saito, and Inui (1998)]. Briefly, PepT1 oocytes were preincubated with 1 mM DEPC for 15 min at pHout 5.5 in the absence or presence of the PepT1 substrates Gly-L-Gln, N-Acetyl-Phe ([Meredith et al., 2000]), and L-Ala-Tyramine (custom synthesised) and the non-substrate Tyr (all 5 mM). The oocytes were then washed in uptake medium before uptake assays were performed as detailed above.

Residue numbers refer to the chain shown, from its start. Where a SMILES comes first, the peptide text is derived from it.

A word on the Ki: it is a measure of affinity in units of concentration, obtained from inhibition or displacement.

On to `NCC(=O)N[C@@H](CCC(N)=O)C(=O)O` [Gly-L-Gln] (H-Gly-Gln-OH), for which the Ki is 480 ± 260 µM in test [1] and 340 ± 270 µM in test [2]. Further, the “protection of PepT1 from DEPC inhibition” value in test [3] was “largely prevented”.
